Experimental data taken from BindingDB's records for patent US20250236609 (Deciphera Pharmaceuticals, 2025).

Molecular target: Phosphatidylinositol 3-kinase catalytic subunit type 3 (Homo sapiens, UniProt Q8NEB9)
Test: Biochemical Assay for VPS34
Experimental: Activity of VPS34 kinase was determined using an ADP-Glo kinase activity assay (Promega Corp). Assays were conducted in 384-well plates (5 μL assay volume) using 25 nM VPS34 (ThermoFisher Scientific), […] PI:3PS Lipid Kinase Substrate (Promega Corp.), and 1 mM ATP in kinase buffer. Inhibition of VPS34 was measured by adding serial diluted test compound (final assay concentration of 0.1% DMSO) followed by a 1-hour incubation at 37° C. ADP-Glo reagent was then added […] followed by a 40 min incubation at rt. Kinase detection reagent was then added […] and followed by a 60 min incubation at rt. Luminescence was then detected. The RLU at each compound concentration of was converted to percent inhibition using controls (i.e., reaction with no test compound and reaction with a known inhibitor) and IC50 values were calculated by fitting a four-parameter sigmoidal curve to the data using GeneData Screener software.

Sequence of Phosphatidylinositol 3-kinase catalytic subunit type 3 (Q8NEB9 whole entry): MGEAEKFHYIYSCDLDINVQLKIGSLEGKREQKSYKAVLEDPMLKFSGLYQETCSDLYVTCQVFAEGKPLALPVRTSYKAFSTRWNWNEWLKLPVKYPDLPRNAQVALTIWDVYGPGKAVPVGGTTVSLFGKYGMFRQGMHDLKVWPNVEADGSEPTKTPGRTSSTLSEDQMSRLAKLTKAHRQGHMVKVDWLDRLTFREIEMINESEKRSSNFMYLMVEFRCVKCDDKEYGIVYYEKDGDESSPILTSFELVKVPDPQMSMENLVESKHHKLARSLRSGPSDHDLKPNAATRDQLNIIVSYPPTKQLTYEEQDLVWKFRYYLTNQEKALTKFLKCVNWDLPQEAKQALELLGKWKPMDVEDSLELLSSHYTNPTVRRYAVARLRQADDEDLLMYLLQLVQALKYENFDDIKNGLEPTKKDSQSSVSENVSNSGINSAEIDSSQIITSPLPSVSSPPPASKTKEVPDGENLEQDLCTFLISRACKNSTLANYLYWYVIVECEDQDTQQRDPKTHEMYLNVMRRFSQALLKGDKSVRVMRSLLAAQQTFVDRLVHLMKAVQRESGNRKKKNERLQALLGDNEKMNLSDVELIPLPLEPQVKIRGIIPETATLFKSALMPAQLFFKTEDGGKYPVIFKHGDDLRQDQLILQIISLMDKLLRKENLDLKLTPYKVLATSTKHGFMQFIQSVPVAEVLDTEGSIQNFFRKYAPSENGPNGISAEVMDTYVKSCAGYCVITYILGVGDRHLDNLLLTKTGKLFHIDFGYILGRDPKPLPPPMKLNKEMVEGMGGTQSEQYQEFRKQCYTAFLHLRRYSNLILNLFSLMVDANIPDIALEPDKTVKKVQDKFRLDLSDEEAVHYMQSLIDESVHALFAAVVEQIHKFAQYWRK

- IC50: < 100 nM
Compound: COC(=O)Nc1cc(-c2cc(-c3cnccc3C(F)(F)F)[nH]c(=O)c2)c(C)cn1 [US20250236609, Example 4]
